Laboratory results published in patent US12503446B2, “Bromodomain inhibitors” (FORSCHUNGSZENTRUM JÜLICH GMBH, priority 2019, dated 2025).

Assays:
HEL cells [1] = assay: Cell cycle analysis (propidium iodide, flow cytometry), HEL; format: cell-based; settings: compared to PFI-1
Method: The influence of the inhibitors used on the cell cycle was examined by means of propidium iodide staining of the fixed cells. For this purpose, the cells were fixed with 95% ethanol at −20° C., RNA was destroyed by RNase (100 μg/ml) at 37° C. for […], and the DNA was stained by means of propidium iodide (50 μg/ml). Using a flow cytometer (Gallios (Beckman Coulter, Krefeld, Germany)), the cell cycle phases were analysed, and the data were evaluated by means of FlowJo Software (Version 10).
During the proliferation, the cells go through different stages of the cell cycle in which genomic DNA is replicated, the cell nucleus is broken down and cell division takes place, resulting in two identical cells.

HEL cells [2] = assay: Viability from trypan blue staining, HEL; format: cell-based; settings: 5 μM, compared to PFI-1
Method: (§1) Cell count and viability was determined after trypan blue staining. The appropriate concentrations of the inhibitors per ml of medium were added, or the correspondingly highest volume of DMSO was added as control group.
During the study of cell proliferation, the viability of the cell lines was likewise determined from the trypan blue staining. Trypan blue cannot penetrate into living cells.

[3] = system: mononuclear cells from AML patients; assay: CFU assay, AML patients; format: cell-based, human
Method: (§2) With the aid of the CFU assay, it is possible to determine the colony-forming capacity of individual cells in a semisolid methylcellulose medium (MethoCult H4434, StemCell Technologies, Cologne, Germany). The number of colonies was determined after 7-11 days.
Mononuclear cells from the bone marrow from AML patients: 7×10^5 cells/ml
Vital sterile mononuclear bone marrow cells from AML patients were cultured for 24 h in 1.5 ml of BIT Medium in 8.5 ml of IMDM medium (to which had been added 5 μl of FLT3 ligand, 10 μl of rh SCF, 2 μl of rh IL-3, 2 μl of rh G-CSF, 50 μl of ciprofloxacin and 6.99 μl of β-mercaptoethanol in 1:100 dilution), before they were used in the CFU assay.
Individual cells in the CFU assay form cell colonies in culture after 12 days, unless the formation thereof is prevented by inhibitors.

[4] = system: erythroleukaemia cell line HEL (JAK2V617F-positive); assay: MTT assay, metabolic activity of HEL cells; format: cell-based; settings: 1 μM, 72 h, DMSO control set to 100%
Method: All studies with the HEL, Molm-14 and K562 cell lines mentioned (sourced from DSMZ: ACC-11, ACC-10 and ACC-777) were conducted under germ-free conditions under a sterile hood. Incubation was effected at 37° C. in an incubator at a CO2 saturation of 5%. For the passage of the suspension cells, the cells were transferred in a Falcon prefilled with PBS (phosphate buffered saline) and centrifuged at 1200 rpm for 5 min. All three cell lines were cultured in RPMI-1640 medium (Gibco, Thermo Fischer Scientific, Darmstadt, Germany) with 10% FCS and 1% penicillin streptomycin.
The viability and metabolic activity of the cells were measured by the MTT assay. Yellow, water-soluble MTT (3-([…])-2,5-diphenyltetrazolium bromide) is a tetrazolium salt which is reduced to dark blue formazan in living cells. Insoluble formazan is released by addition of isopropanol-HCl, and its intensity can be determined by photometry at a wavelength of 550 nm. Thus, the proportion of living cells is measured by comparison with a particular control sample. The cells were counted and washed with PBS, and 30 000 cells per well were sown in triplicates in a 96-well plate. For the inhibitor treatment, the stated final concentrations were used. For this purpose, 10 µl of the appropriate inhibitor dilution was introduced into the 96-well plates, and then 90 μl of cell suspension was pipetted in. The plates were incubated in an incubator for 72 h (37° C., 5% CO2). After the incubation, 10 μl of MTT solution (5 mg/ml) was applied to the wells with a multichannel pipette and thoroughly resuspended. This was followed by incubation for 4 h in the dark at room temperature. Subsequently, the cells were resuspended in 100 μl of isopropanol-HCl and lysed, and absorption at a wavelength of 550 nm was measured by photometry with a plate reader (Kayto, RT-2100C).
The erythroleukaemia cell line HEL (JAK2V617F-positive), the AML cell line Molm-14 and the chronic myeloid leukaemia (CML) cell line K562 (BCR-ABL-positive) were used for cell experiments.
Compounds MF1-R, MF1-S, JHS1-R and JHS1-S were dissolved in DMSO, and each was used in concentrations of 0.1 μM, 1 μM, 10 μM and 20 μM. Correspondingly, DMSO was included in each case as a control treatment, and the metabolic activity thereof was set to 100%. The HEL, Molm-14 and K562 cell lines were treated with the respective compounds in the different concentrations and, after 72 h in culture, the metabolic activity, which gives information about the growth of the cells, was determined by means of MTT [3-(4,5-dimethylthiazol-2-yl)-2,5-diphenyltetrazolium bromide] assay.

HEL cells [5] = assay: Proliferation assay, cell count after trypan blue staining, HEL; format: cell-based; settings: 1 or 5 μM, 24-72 h, by comparison with PFI-1
Method: as §1
The cell growth described here is referred to as proliferation, and gives information as to the cell divisions that proceeded in the specified period.

[6] = system: PBMC or CD34+ cells from healthy donors; assay: CFU assay, healthy controls; format: cell-based, human
Method: as §2
CD34+ cells (G-CSF mobilized from stem cell donors) from healthy donors: 2×10^4 cells/ml; PBMCs from the healthy subjects: 4×10^5 cells/ml.
For this purpose, mononuclear cells (PBMC: mononuclear cells from peripheral blood) or CD34-positive stem cells (CD34+ cells) were isolated from the blood of four healthy controls and three AML or MPN patients and introduced into semisolid medium, to each of which 1 μM or 5 μM of MFS-2 or PFI-1 have been added. Individual cells in the CFU assay form cell colonies in culture after 12 days, unless the formation thereof is prevented by inhibitors.

BRD4 = assay: Thermal shift assay (BromoMELT assay), BRD4; format: binding; settings: 10 μM, duplicates, versus DMSO control
Method: (§3) The experiment was conducted in duplicates at a concentration of 10 μM.

[7] = system: proteins from the BET family; assay: Thermal shift assay (BromoMELT assay), BET family; format: binding; settings: 10 μM, duplicates, versus DMSO control; apart from BRDT-2
Method: as §3

For `CN1Cc2cc(N=[S@@](C)(=O)c3ccccc3)ccc2NC1=O` [MF2-S, (S)—N-(3-methyl-2-oxo-1,2,3,4-tetrahydroquinazolin-6-yl)-S-methyl-S-phenylsulfoximine], the “subG1 phase (percentage of dead cells), HEL” value (HEL cells [1]) was “significantly higher proportions”, the “synthesis phase (S phase) of cell cycle, HEL” value (HEL cells [1]) was “more significantly inhibited by MF2-S than by PFI-1” and the “viability of HEL cells” value (HEL cells [2]) was “significantly reduced the viability”. For the same molecule, the “colony count, AML patients, 1 μM versus 5 μM PFI-1” value ([3]; 1 μM) was “just as efficient as 5 μM PFI-1”, the “colony count, AML patients” value ([3]; 1 μM and 5 μM, compared to PFI-1 at same concentration) was “reduced the colony count to a significantly greater degree than PFI-1” and the “metabolic activity of HEL cells” value [4] was 37.24%±6.19. The “cell proliferation (cell count) of HEL” value (HEL cells [5]) was “significantly reduced the cell proliferation”, the “colony count, healthy CD34+ controls 3 and 4” value ([6]; 1 μM) was “reduced the colony count of the controls to a lesser degree” and the “colony count, healthy control 4” value ([6]; 1 μM) was “not significantly reduced”. For the same molecule, the “colony count, healthy controls 1 (PBMC) and 2 (CD34+ cells)” value ([6]; 5 μM) was “likewise reduced the amount of colonies”, the “binding / specificity for BRD4 (ΔTm, in words)” value (BRD4) was “more specific binding of BRD4” and the “binding of BET family proteins (ΔTm, in words)” value [7] was “equally good or better binding of proteins from the BET family compared to the comparative compound PFI-1”.
